{
  "source": "paper PMC9403976",
  "about": "“Elucidating the path to Plasmodium prolyl-tRNA synthetase inhibitors that overcome halofuginone resistance” (Nature Communications, 2022)",
  "key": {"[1]": {"test_system": "P. falciparum Dd2-2D4", "test": "P. falciparum asexual blood stage (ABS) growth assay, SYBR Green, 72 h, wild-type parasites", "type": "cell-based, Plasmodium falciparum", "details": "Plasmodium falciparum, DD2; SI Fig 16b; values on -log scale; read-out: ABS - Dd2-2D4 (converted)"}, "[2]": {"molecular_target": "T1, PfcProRS (Plasmodium falciparum, UniProt Q8I5R7)", "T1 construct": "made in house; host or cells: E. coli SoluBL-21", "T1 sequence (Q8I5R7 249-746)": "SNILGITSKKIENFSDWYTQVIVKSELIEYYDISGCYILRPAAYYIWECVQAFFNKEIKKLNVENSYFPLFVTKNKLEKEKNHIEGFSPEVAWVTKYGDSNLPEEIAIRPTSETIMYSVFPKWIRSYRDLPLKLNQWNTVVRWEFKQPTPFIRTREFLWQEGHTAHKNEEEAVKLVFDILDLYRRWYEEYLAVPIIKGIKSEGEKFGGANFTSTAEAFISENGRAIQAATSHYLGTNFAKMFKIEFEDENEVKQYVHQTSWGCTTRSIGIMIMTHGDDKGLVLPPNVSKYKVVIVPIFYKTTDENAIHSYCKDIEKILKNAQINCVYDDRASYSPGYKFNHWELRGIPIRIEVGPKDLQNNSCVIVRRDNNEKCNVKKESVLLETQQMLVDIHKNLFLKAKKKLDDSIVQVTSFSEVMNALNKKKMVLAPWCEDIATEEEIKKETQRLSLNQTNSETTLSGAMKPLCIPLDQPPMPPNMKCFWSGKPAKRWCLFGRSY", "type": "binding", "details": "for dose-response signal (normalized), SI Fig 8: single replicates"}, "[3]": {"molecular_target": "HsProRS (Homo sapiens, UniProt P07814)", "sequence (P07814 996-1512)": "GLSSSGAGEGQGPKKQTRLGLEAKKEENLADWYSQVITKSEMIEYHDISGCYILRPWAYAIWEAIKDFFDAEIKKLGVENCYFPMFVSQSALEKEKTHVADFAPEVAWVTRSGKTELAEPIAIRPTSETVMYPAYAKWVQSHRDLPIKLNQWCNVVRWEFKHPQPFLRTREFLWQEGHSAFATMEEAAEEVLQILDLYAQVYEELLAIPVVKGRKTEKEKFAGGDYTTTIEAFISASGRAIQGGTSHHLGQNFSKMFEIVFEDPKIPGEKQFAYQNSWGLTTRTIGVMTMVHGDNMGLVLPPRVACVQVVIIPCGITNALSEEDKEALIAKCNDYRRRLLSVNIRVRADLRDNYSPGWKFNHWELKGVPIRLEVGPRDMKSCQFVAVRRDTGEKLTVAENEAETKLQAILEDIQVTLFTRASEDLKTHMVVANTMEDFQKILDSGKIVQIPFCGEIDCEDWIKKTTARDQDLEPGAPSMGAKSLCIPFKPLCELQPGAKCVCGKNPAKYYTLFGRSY", "test": "TR-FRET ligand displacement assay with tracer MAT379 (CoraFluor-1-Halo and anti-His6 antibody formats)", "type": "binding", "set-up": "made in house; host or cells: E. coli SoluBL-21", "details": "for TR-FRET dose-response, normalized signal (SI Fig 11): individual replicates"}},
  "note": "Several values for one entry are separate records, joined by “and”; a condition that tells them apart may be missing. Equal values may be shown once. Read-outs that look alike come from different tables or passages of the source.",
  "data": [
    {"molecule": "O=C(Nc1nccnc1C(=O)NC1Cc2ccccc2C1)c1ccccc1", "note": "[compound 21]", "values": [
      {"measurement": "EC50", "setting": "[1]", "result": 9.59, "unit": "µM"},
      {"measurement": "dose-response signal (normalized), SI Fig 8", "setting": "[2]; Log[inhibitor] (M) -5.000", "result": "2.91E-01 and 3.96E-01 and 3.40E-01"},
      {"measurement": "dose-response signal (normalized), SI Fig 8", "setting": "[2]; Log[inhibitor] (M) -5.301", "result": "6.52E-01 and 5.68E-01 and 6.33E-01"},
      {"measurement": "dose-response signal (normalized), SI Fig 8", "setting": "[2]; Log[inhibitor] (M) -5.601", "result": "7.76E-01 and 6.88E-01 and 8.76E-01"},
      {"measurement": "dose-response signal (normalized), SI Fig 8", "setting": "[2]; Log[inhibitor] (M) -5.904", "result": "1.01E+00 and 9.17E-01 and 9.47E-01"},
      {"measurement": "dose-response signal (normalized), SI Fig 8", "setting": "[2]; Log[inhibitor] (M) -6.208", "result": "1.01E+00 and 1.00E+00 and 8.81E-01"},
      {"measurement": "dose-response signal (normalized), SI Fig 8", "setting": "[2]; Log[inhibitor] (M) -6.509", "result": "9.40E-01 and 8.71E-01 and 1.01E+00"},
      {"measurement": "dose-response signal (normalized), SI Fig 8", "setting": "[2]; Log[inhibitor] (M) -6.796", "result": "1.06E+00 and 9.99E-01 and 1.08E+00"},
      {"measurement": "dose-response signal (normalized), SI Fig 8", "setting": "[2]; Log[inhibitor] (M) -7.108", "result": "9.00E-01 and 9.54E-01 and 9.75E-01"},
      {"measurement": "dose-response signal (normalized), SI Fig 8", "setting": "[2]; Log[inhibitor] (M) -7.409", "result": "1.04E+00 and 1.03E+00 and 9.91E-01"},
      {"measurement": "dose-response signal (normalized), SI Fig 8", "setting": "[2]; Log[inhibitor] (M) -7.710", "result": "9.51E-01 and 8.62E-01 and 1.00E+00"},
      {"measurement": "dose-response signal (normalized), SI Fig 8", "setting": "[2]; Log[inhibitor] (M) -8.000", "result": "9.32E-01 and 1.04E+00 and 9.09E-01"},
      {"measurement": "dose-response signal (normalized), SI Fig 8", "setting": "[2]; Log[inhibitor] (M) -8.301", "result": "9.87E-01 and 9.76E-01 and 8.57E-01"},
      {"measurement": "dose-response signal (normalized), SI Fig 8", "setting": "[2]; Log[inhibitor] (M) -8.602", "result": "1.04E+00 (2×) and 9.76E-01"},
      {"measurement": "dose-response signal (normalized), SI Fig 8", "setting": "[2]; Log[inhibitor] (M) -9.000", "result": "9.49E-01 and 9.11E-01 and 1.01E+00"},
      {"measurement": "dose-response signal (normalized), SI Fig 8", "setting": "[2]; Log[inhibitor] (M) -9.301", "result": "1.10E+00 and 1.02E+00 and 1.05E+00"},
      {"measurement": "PfcProRS -- best Kd", "setting": "[2]; SI Fig 16a, values on -log scale", "result": 5.845},
      {"measurement": "Kd", "setting": "[3]; HsProRS (KD [nM]) mean, no added proline/ATP (-)", "result": 7830, "unit": "nM"},
      {"measurement": "Kd", "setting": "[3]; HsProRS - best Kd, SI Fig 16a, values on -log scale", "result": 140, "unit": "nM"},
      {"measurement": "normalized TR-FRET ligand displacement signal, dose-response replicates (SI Fig 6)", "setting": "[3]; Log[inhibitor] (M) -5.000", "result": "5.46E-01 and 5.55E-01 and 4.94E-01"},
      {"measurement": "TR-FRET dose-response, normalized signal (SI Fig 11)", "setting": "[3]; Log[inhibitor] (M) -5.000", "result": "4.76E-01 and 4.38E-01 and 4.70E-01"},
      {"measurement": "normalized TR-FRET ligand displacement signal, dose-response replicates (SI Fig 6)", "setting": "[3]; Log[inhibitor] (M) -5.301", "result": "7.40E-01 and 7.43E-01 and 7.80E-01"},
      {"measurement": "TR-FRET dose-response, normalized signal (SI Fig 11)", "setting": "[3]; Log[inhibitor] (M) -5.301", "result": "6.10E-01 and 6.26E-01 and 6.30E-01"},
      {"measurement": "normalized TR-FRET ligand displacement signal, dose-response replicates (SI Fig 6)", "setting": "[3]; Log[inhibitor] (M) -5.601", "result": "9.19E-01 and 8.75E-01 and 9.42E-01"},
      {"measurement": "TR-FRET dose-response, normalized signal (SI Fig 11)", "setting": "[3]; Log[inhibitor] (M) -5.601", "result": "7.50E-01 and 7.65E-01 and 7.70E-01"},
      {"measurement": "normalized TR-FRET ligand displacement signal, dose-response replicates (SI Fig 6)", "setting": "[3]; Log[inhibitor] (M) -5.904", "result": "9.17E-01 and 1.01E+00 and 8.04E-01"},
      {"measurement": "TR-FRET dose-response, normalized signal (SI Fig 11)", "setting": "[3]; Log[inhibitor] (M) -5.904", "result": "8.93E-01 and 9.01E-01 and 8.63E-01"},
      {"measurement": "normalized TR-FRET ligand displacement signal, dose-response replicates (SI Fig 6)", "setting": "[3]; Log[inhibitor] (M) -6.208", "result": "9.67E-01 and 9.54E-01 and 1.10E+00"},
      {"measurement": "TR-FRET dose-response, normalized signal (SI Fig 11)", "setting": "[3]; Log[inhibitor] (M) -6.208", "result": "8.73E-01 and 9.00E-01 and 9.32E-01"},
      {"measurement": "normalized TR-FRET ligand displacement signal, dose-response replicates (SI Fig 6)", "setting": "[3]; Log[inhibitor] (M) -6.509", "result": "9.94E-01 and 9.87E-01 and 9.37E-01"},
      {"measurement": "TR-FRET dose-response, normalized signal (SI Fig 11)", "setting": "[3]; Log[inhibitor] (M) -6.509", "result": "9.94E-01 and 8.74E-01 and 9.48E-01"},
      {"measurement": "normalized TR-FRET ligand displacement signal, dose-response replicates (SI Fig 6)", "setting": "[3]; Log[inhibitor] (M) -6.796", "result": "1.04E+00 (2×) and 9.65E-01"},
      {"measurement": "TR-FRET dose-response, normalized signal (SI Fig 11)", "setting": "[3]; Log[inhibitor] (M) -6.796", "result": "9.17E-01 and 9.74E-01 and 9.27E-01"},
      {"measurement": "normalized TR-FRET ligand displacement signal, dose-response replicates (SI Fig 6)", "setting": "[3]; Log[inhibitor] (M) -7.108", "result": "1.01E+00 and 1.08E+00 and 1.09E+00"},
      {"measurement": "TR-FRET dose-response, normalized signal (SI Fig 11)", "setting": "[3]; Log[inhibitor] (M) -7.108", "result": "9.75E-01 and 8.96E-01 and 1.01E+00"},
      {"measurement": "normalized TR-FRET ligand displacement signal, dose-response replicates (SI Fig 6)", "setting": "[3]; Log[inhibitor] (M) -7.409", "result": "1.16E+00 and 9.90E-01 and 9.46E-01"},
      {"measurement": "TR-FRET dose-response, normalized signal (SI Fig 11)", "setting": "[3]; Log[inhibitor] (M) -7.409", "result": "9.43E-01 and 9.53E-01 and 9.38E-01"},
      {"measurement": "normalized TR-FRET ligand displacement signal, dose-response replicates (SI Fig 6)", "setting": "[3]; Log[inhibitor] (M) -7.710", "result": "1.13E+00 and 9.28E-01 and 1.00E+00"},
      {"measurement": "TR-FRET dose-response, normalized signal (SI Fig 11)", "setting": "[3]; Log[inhibitor] (M) -7.710", "result": "1.01E+00 and 9.57E-01 and 9.99E-01"},
      {"measurement": "normalized TR-FRET ligand displacement signal, dose-response replicates (SI Fig 6)", "setting": "[3]; Log[inhibitor] (M) -8.000", "result": "1.06E+00 and 9.95E-01 and 9.77E-01"},
      {"measurement": "TR-FRET dose-response, normalized signal (SI Fig 11)", "setting": "[3]; Log[inhibitor] (M) -8.000", "result": "9.75E-01 and 9.47E-01 and 9.43E-01"},
      {"measurement": "normalized TR-FRET ligand displacement signal, dose-response replicates (SI Fig 6)", "setting": "[3]; Log[inhibitor] (M) -8.301", "result": "9.85E-01 and 1.04E+00 and 1.05E+00"},
      {"measurement": "TR-FRET dose-response, normalized signal (SI Fig 11)", "setting": "[3]; Log[inhibitor] (M) -8.301", "result": "8.99E-01 and 9.31E-01 and 9.94E-01"},
      {"measurement": "normalized TR-FRET ligand displacement signal, dose-response replicates (SI Fig 6)", "setting": "[3]; Log[inhibitor] (M) -8.602", "result": "9.47E-01 and 9.26E-01 and 9.87E-01"},
      {"measurement": "TR-FRET dose-response, normalized signal (SI Fig 11)", "setting": "[3]; Log[inhibitor] (M) -8.602", "result": "9.70E-01 and 9.30E-01 and 9.54E-01"},
      {"measurement": "normalized TR-FRET ligand displacement signal, dose-response replicates (SI Fig 6)", "setting": "[3]; Log[inhibitor] (M) -9.000", "result": "9.16E-01 and 9.83E-01 and 9.58E-01"},
      {"measurement": "TR-FRET dose-response, normalized signal (SI Fig 11)", "setting": "[3]; Log[inhibitor] (M) -9.000", "result": "9.06E-01 and 1.03E+00 and 9.30E-01"},
      {"measurement": "normalized TR-FRET ligand displacement signal, dose-response replicates (SI Fig 6)", "setting": "[3]; Log[inhibitor] (M) -9.301", "result": "8.87E-01 and 1.01E+00 (2×)"},
      {"measurement": "TR-FRET dose-response, normalized signal (SI Fig 11)", "setting": "[3]; Log[inhibitor] (M) -9.301", "result": "9.47E-01 and 9.42E-01 and 9.85E-01"}
    ]}
  ]
}
